Measured values as given in publication PMC8815882, “Screening the pandemic response box identified benzimidazole carbamates, Olorofim and ravuconazole as promising drug candidates for the treatment of eumycetoma” (PLoS Neglected Tropical Diseases, 2022).
Read-outs that look alike come from different tables or passages of the source.

Tested on: M. mycetomatis genome strain MM55
Experiment: CLSI M38-A2 based in vitro susceptibility screening (XTT or resazurin), growth at fixed concentration
Type: cell-based, Madurella mycetomatis
Conditions: Madurella mycetomatis
[1] = mean of replicates, MM55, read-out: Percentage survival at 25um, 25 uM mean
[2] = replicate A, MM55, read-out: Percentage survival at 25um, 25 um A
[3] = replicate B, MM55, read-out: Percentage survival at 25um, 25 uM B
[4] = replicate C, MM55, read-out: Percentage survival at 25um, 25 uM C
[5] = 100 uM, mean of replicates, MM55, read-out: Percentage survival at 100um, 100 uM mean
[6] = 100 uM, replicate 1, MM55, read-out: Percentage survival at 100um, 100 uM A
[7] = 100 uM, replicate 2, MM55, read-out: Percentage survival at 100um, 100 uM A
[8] = 100 uM, replicate 3, MM55, read-out: Percentage survival at 100um, 100 uM A
[9] = mean of replicates, read-out: Percentage survival at 25um, 25 uM mean
[10] = replicate A, read-out: Percentage survival at 25um, 25 um A
[11] = replicate B, read-out: Percentage survival at 25um, 25 uM B
[12] = replicate C, read-out: Percentage survival at 25um, 25 uM C
[13] = 100 uM, mean of replicates, read-out: Percentage survival at 100um, 100 uM mean
[14] = 100 uM, replicate 1, read-out: Percentage survival at 100um, 100 uM A
[15] = 100 uM, replicate 2, read-out: Percentage survival at 100um, 100 uM A
[16] = 100 uM, replicate 3, read-out: Percentage survival at 100um, 100 uM A
[17] = mean, read-out: Percentage survival at 25um, 25 uM mean
[18] = 100 uM, mean, read-out: Percentage survival at 100um, 100 uM mean
[19] = 100 uM, replicate (first column), read-out: Percentage survival at 100um, 100 uM A
[20] = 100 uM, replicate (second column), read-out: Percentage survival at 100um, 100 uM A
[21] = 100 uM, replicate (third column), read-out: Percentage survival at 100um, 100 uM A

Row | Structure (SMILES) | activity at 25 µM [1] [%] | activity at 25 µM [2] [%] | activity at 25 µM [3] [%] | activity at 25 µM [4] [%] | activity at 100 µM [5] [%] | activity at 100 µM [6] [%] | activity at 100 µM [7] [%] | activity at 100 µM [8] [%] | activity at 25 µM [9] [%] | activity at 25 µM [10] [%] | activity at 25 µM [11] [%] | activity at 25 µM [12] [%] | activity at 100 µM [13] [%] | activity at 100 µM [14] [%] | activity at 100 µM [15] [%] | activity at 100 µM [16] [%] | activity at 25 µM [17] [%] | activity at 100 µM [18] [%] | activity at 100 µM [19] [%] | activity at 100 µM [20] [%] | other results
1 | Nc1nc(-c2ccccc2)nc2[nH]nc(Nc3ccc(C(F)(F)F)cc3)c12 [MMV1633968] | 111 | 147 | 105 | 80.3 | 86.9 | 89.5 | 94 | 77.2 | – | – | – | – | – | – | – | – | – | – | – | – | –
2 | O=C(O)c1ccc(-c2ccc(O[C@H]3O[C@H](CO)[C@@H](O)[C@H](O)[C@@H]3O)cc2)cc1 [MMV1633970] | – | – | – | – | – | – | – | – | 80.8 | 83.4 | 84.3 | 74.7 | 73.9 | 68.9 | 82.1 | 70.6 | – | – | – | – | –
3 | CN(C/C=C/C#CC(C)(C)C)Cc1cccc2ccccc12 [MMV1634359] | – | – | – | – | – | – | – | – | – | 132 | 99.8 | 60.4 | – | – | – | – | 97.3 | 81.5 | 86.8 | 58.9 | activity at 100 µM [21]: 98.8%
4 | O=C1c2cccc3cccc(c23)C(=O)N1CC1CO1 (centres unmarked) [MMV1634360] | – | – | – | – | – | – | – | – | – | 65.4 | 62.1 | 55.4 | – | – | – | – | 61 | 2.87 | -2.26 | 3.27 | activity at 100 µM [21]: 7.61%
5 | N[C@H]1CCC[C@H]1C(=O)O [MMV1634361] | 92.1 | 98.3 | 98.6 | 79.4 | 96.6 | 90.9 | 120 | 79.2 | – | – | – | – | – | – | – | – | – | – | – | – | –
6 | OB1OCc2cc(Cl)ccc21 [MMV1634363] | – | – | – | – | – | – | – | – | – | 51.2 | -4.3 | 52.5 | – | – | – | – | 33.1 | 61.8 | 40.7 | 85.6 | activity at 100 µM [21]: 59.1%
7 | CCc1cc(Nc2cc(=O)n(CCN3CCN(C(=O)c4ccccc4)CC3)c(=O)[nH]2)ccc1C [MMV1634383] | – | – | – | – | – | – | – | – | 84 | 86.7 | 79.7 | 85.7 | 88.4 | 93 | 83.3 | 89 | – | – | – | – | –
8 | CCN(CC)S(=O)(=O)c1ccc(Cl)c(C(=O)Nc2sc3c(c2C#N)CCCC3)c1 [MMV1634384] | – | – | – | – | – | – | – | – | 89.4 | 87.9 | 80.1 | 100 | 89.5 | 89.4 | 89.9 | 89.3 | – | – | – | – | –
9 | Nc1ccc(-c2nc3cc(C(F)(F)F)ccc3n2C23CC4CC(CC(C4)C2)C3)cc1 [MMV1634385] | 82.4 | 108 | 85.4 | 54 | 57.5 | 61.2 | 52.2 | 59.1 | – | – | – | – | – | – | – | – | – | – | – | – | –
10 | CC(C)(C)c1ccc(OCCn2nc(C(=O)O)c3ccccc3c2=O)cc1 [MMV1634387] | – | – | – | – | – | – | – | – | – | – | – | – | – | – | – | – | – | – | – | – | activity at 25 µM (mean of three, M. mycetomatis MM55, read-out: Percentage survival at 25um, 25 uM mean): 81.2%; activity at 25 µM (replicate A, M. mycetomatis MM55, read-out: Percentage survival at 25um, 25 um A): 89.9%; activity at 25 µM (replicate B, M. mycetomatis MM55, read-out: Percentage survival at 25um, 25 uM B): 84.5%; activity at 25 µM (replicate C, M. mycetomatis MM55, read-out: Percentage survival at 25um, 25 uM C): 69.2%; activity at 100 µM (100 uM, mean of three, M. mycetomatis MM55, read-out: Percentage survival at 100um, 100 uM mean): 66.6%; activity at 100 µM (100 uM, replicate 1, M. mycetomatis MM55, read-out: Percentage survival at 100um, 100 uM A (first replicate column)): 80.6%; Percent fungal survival at 100 µM (100 uM, replicate 2, M. mycetomatis MM55, read-out: Percentage survival at 100um, 100 uM A (second replicate column)): 37.8%; activity at 100 µM (100 uM, replicate 3, M. mycetomatis MM55, read-out: Percentage survival at 100um, 100 uM A (third replicate column)): 81.3%
